Laboratory results reported in US20110009411A1, “THERAPEUTIC COMPOSITIONS AND THE USE THEREOF” (Gilead Sciences ,Inc., priority 2007, published 2011).

Test: Steady-state pharmacokinetic interaction study of the Compound and lopinavir/r (LPV/r)
Type: in vivo, human
Details: healthy volunteers
[1] = the Compound 125 mg QD + LPV/r 400/100 mg BID vs the Compound/r 125/100 mg QD (coadministration:alone), 14-day periods, n = 14

Cc1cccc(C)c1OCC(=O)N[C@@H](Cc1ccccc1)[C@@H](O)C[C@H](Cc1ccccc1)NC(=O)[C@H](C(C)C)N1CCCNC1=O [LPV, (2S)—N-[(2S,4S,5S)-5-{[2-(2,6-dimethyl-phenoxy)acetyl]amino}-4-hydroxy-1,6-diphenyl-hexan-2-yl]-3-methyl-2-(2-oxo-1,3-diazinan-1-yl)butanamide, reference compound]
LPV trough concentrations when coadministered with the Compound (steady state): maintained above recommended target troughs | exposures when coadministered with the Compound (steady state): unaltered

COc1cc2c(cc1Cc1cccc(Cl)c1F)c(=O)c(C(=O)O)cn2[C@H](CO)C(C)C [the Compound, 6-(3-chloro-2-fluorobenzyl)-1-[(2S)-1-hydroxy-3-methylbutan-2-yl]-7-methoxy-4-oxo-1,4-dihydroquinoline-3-carboxylic acid]
Compound exposures upon coadministration with LPV/r (steady state): substantially elevated | AUCtau % GMR (90% CI) [1]: 175% | Cmax % GMR (90% CI) [1]: 152% | Ctau % GMR (90% CI) [1]: 238%

CC(C)c1nc(CN(C)C(=O)NC(C(=O)NC(Cc2ccccc2)CC(O)C(Cc2ccccc2)NC(=O)OCc2cncs2)C(C)C)cs1 (stereo not shown) [RTV, 1,3-thiazol-5-ylmethyl[3-hydroxy-5-[3-methyl-2-[methyl-[(2-propan-2-yl-1,3-thiazol-4-yl)methyl]carbamoyl]amino-butanoyl]amino-1,6-diphenyl-hexan-2-yl]aminoformate, reference compound]
exposures when coadministered with the Compound (steady state): unaltered
